The record followed here is patent publication US10278942B2 (PELOTON THERAPEUTICS, INC., priority 2015, dated 2019).

In assay [1] the target is T1, HIF-2α HIS TAG-PASB Domain (Homo sapiens, UniProt Q99814).
T1 construct: 100 nM HIF-2α HIS TAG-PASB Domain
In words: HIF-2α Scintillation Proximity Assay (SPA). Format: binding. The method in brief:
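IC50 values rest on percent inhibition, where the sample signal is scaled between high and low controls. Wells contain about 100 μL: compound dispensed as 2 μL of DMSO solution, 88 μL protein-probe mix and 10 μL of beads.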

The test system of assay [2] is 786-O-Hif-Luc cells. In words: Luciferase Assay (HIF responsive elements reporter).
Method: A pool of infected cells were then selected against 2 μg/mL of puromycin (P8833, Sigma) for 10 days followed by limited dilution to select single clones. […] Each concentration was tested in triplicate. After about 24 hours, luciferase activity was determined using ONE-Glo Luciferase Assay Reagent (E6110, Promega) following the manufacturer's recommended procedure. EC50 were calculated using Dotmatics software.
The mark [3] stands for this setting: read-out: Scintillation Proximity Assay IC50.
Where [4] appears, read: read-out: Mean Luciferase EC50 (nM), 786-O-Hif-Luc cells.

The structures appear in SMILES notation. Where two headings read alike, the source gives them in different places.

T1 sequence (Q99814 240-350 limits assumed): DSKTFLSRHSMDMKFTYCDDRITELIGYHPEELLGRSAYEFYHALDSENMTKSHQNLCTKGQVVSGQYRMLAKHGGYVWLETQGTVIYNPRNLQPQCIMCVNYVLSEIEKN

Consider `O=S(=O)(c1ccc(Oc2cccc3[nH]ncc23)c2c1C(O)C(F)(F)C2)C(F)(F)F` (stereo not shown) [Compound 243], for which the IC50 in assay [1] (setting [3]) lay within 250 to 1000 nM. Also, the EC50 in assay [2] (setting [4]) was in the range of 250 to 1000 nM.

As for `O=S(=O)(c1ccc(Oc2c(F)ccc3[nH]ncc23)c2c1C(O)C(F)(F)C2)C(F)(F)F` (stereo not shown) [Compound 244], the IC50 in assay [1] (setting [3]) lay within 250 to 1000 nM. The EC50 in assay [2] (setting [4]) was greater than 1000 nM.

As for `Cc1cc(S(=O)(=O)C(F)F)ccc1Oc1cc(F)cc(Cl)c1` [Compound 135], the IC50 in assay [1] (setting [3]) lay in the range of 250 to 1000 nM. The EC50 in assay [2] (setting [4]) was greater than 1000 nM.

On to `COCCCOc1ccc(S(=O)(=O)C(F)(F)F)c2c1CC(F)(F)C2O` (stereo not shown) [Compound 608], for which, in assay [1] (setting [3]), the IC50 is less than 50 nM. Further, in assay [2] (setting [4]), the EC50 was 250 to 1000 nM.

For `O=Cc1c(S(=O)(=O)C(F)(F)F)ccc(Oc2cc(F)cc(Cl)c2)c1Cl` [Compound 112], the IC50 in assay [1] (setting [3]) is less than 50 nM. In addition, in assay [2] (setting [4]), the EC50 lay within 250 to 1000 nM.

On to `CCCc1ccc(S(=O)(=O)C(F)(F)F)c2c1CC(F)(F)C2O` (stereo not shown) [Compound 517], for which the IC50 in assay [1] (setting [3]) was 50 to 249 nM. The EC50 in assay [2] (setting [4]) was 250 to 1000 nM.

As to `CS(=O)(=O)c1ccc(O[C@H]2C[C@](C)(C#N)C2)c2c1[C@H](O)C(F)(F)[C@@H]2F` [Compound 767], the IC50 in assay [1] (setting [3]) is greater than 1000 nM. Moreover, the EC50 in assay [2] (setting [4]) was greater than 1000 nM.

As for `O=S(=O)(c1ccc(OCCCO)c2c1C(O)C(F)(F)C2)C(F)(F)F` (stereo not shown) [Compound 612], the IC50 in assay [1] (setting [3]) lay in the range of 250 to 1000 nM. Also, the EC50 in assay [2] (setting [4]) is greater than 1000 nM.

As for `CS(=O)(=O)c1ccc(Oc2cc(F)cc(Cl)c2)c2c1C(O)CC2` (stereo not shown) [Compound 90], in assay [1] (setting [3]), the IC50 fell in the range of 50 to 249 nM. Also, the EC50 in assay [2] (setting [4]) fell in the range of 250 to 1000 nM.

Regarding `O=S1(=O)CC(O)c2c1ccc(Oc1cc(F)cc(F)c1)c2C(F)F` (stereo not shown) [Compound 370], in assay [1] (setting [3]), the IC50 was 50 to 249 nM. Also, the EC50 in assay [2] (setting [4]) lay in the range of 250 to 1000 nM.

In the case of `CS(=O)(=O)c1ccc(O[C@H]2C[C@H](F)C2)c2c1[C@H](O)C(F)(F)[C@H]2F` [Compound 737], the IC50 in assay [1] (setting [3]) lay in the range of 50 to 249 nM. Also, the EC50 in assay [2] (setting [4]) is greater than 1000 nM.

In the case of `N#Cc1c(Oc2cc(F)cc(F)c2)ccc2c1[C@@H](O)CS2(=O)=O` [Compound 414], the IC50 in assay [1] (setting [3]) was 50 to 249 nM. In assay [2] (setting [4]), the EC50 was 250 to 1000 nM.

On to `CS(=O)(=O)c1ccc(OC(CF)CF)c2c1[C@H](O)C(F)(F)[C@@H]2F` [Compound 762], for which the half-inhibitory concentration (IC50) in assay [1] (setting [3]) fell in the range of 250 to 1000 nM. Also, the EC50 in assay [2] (setting [4]) lay within 250 to 1000 nM.

Take `COC(C)COc1ccc(S(=O)(=O)C(F)(F)F)c2c1CC(F)(F)C2O` (stereo not shown) [Compound 626]: the IC50 in assay [1] (setting [3]) was less than 50 nM. The EC50 in assay [2] (setting [4]) fell in the range of 50 to 249 nM.

With `O=S(=O)(c1ccc(Oc2ccc(F)c(Cl)c2)c2c1[C@H](O)C(F)(F)C2)C(F)F` [Compound 26], the IC50 in assay [1] (setting [3]) is less than 50 nM. Moreover, in assay [2] (setting [4]), the EC50 lay in the range of 50 to 249 nM.

On to `N#CC1(COc2ccc(S(=O)(=O)C(F)(F)F)c3c2CCC3O)CC1` (stereo not shown) [Compound 619], for which, in assay [1] (setting [3]), the IC50 was greater than 1000 nM. In addition, in assay [2] (setting [4]), the EC50 is greater than 1000 nM.

Take `N#Cc1cc(F)cc(Oc2ccc(S(=O)(=O)C(F)(F)F)cc2C#N)c1` [Compound 120]: the IC50 in assay [1] (setting [3]) fell in the range of 250 to 1000 nM. In addition, the EC50 in assay [2] (setting [4]) is greater than 1000 nM.

On to `[2H]C1(O)c2c(ccc(Oc3cc(F)cc(Cl)c3)c2C(F)F)S(=O)(=O)C1(F)F` (stereo not shown) [Compound 371], for which the IC50 in assay [1] (Scintillation Proximity Assay IC50 (nM)) is less than 50 nM. Also, the EC50 in assay [2] (read-out: Mean Luciferase EC50 (nM)) is less than 50 nM.

Consider `N=S1(=O)c2ccc(Oc3cc(F)cc(F)c3)c(Br)c2C(O)C1(F)F` (stereo not shown) [Compound 377], for which, in assay [1] (setting [3]), the IC50 was greater than 1000 nM. The EC50 in assay [2] (setting [4]) lay within 250 to 1000 nM.

Turning to `O=S(=O)(CF)c1ccc(Oc2cc(F)cc(F)c2)c2c1C(O)CC2` (stereo not shown) [Compound 59], the concentration for half-maximal inhibition (IC50) in assay [1] (setting [3]) is less than 50 nM. The EC50 in assay [2] (setting [4]) lay in the range of 50 to 249 nM.

Take `N#C[C@H]1C[C@H](Oc2ccc(S(=O)(=O)C(F)(F)F)c3c2CC(F)(F)[C@H]3O)C1` [Compound 786]: the IC50 in assay [1] (setting [3]) was less than 50 nM. Moreover, in assay [2] (setting [4]), the EC50 is less than 50 nM.

In the case of `CC(=O)N[C@H]1C[C@@H](Oc2ccc(S(=O)(=O)C(F)(F)F)c3c2CC(F)(F)[C@H]3O)C1` [Compound 725], in assay [1] (setting [3]), the half-inhibitory concentration (IC50) was greater than 1000 nM. Besides, in assay [2] (setting [4]), the EC50 is greater than 1000 nM.

`CS(=O)(=O)c1ccc(OC2CC(F)(F)C2)c2c1[C@H](O)C(F)(F)[C@H]2F` [Compound 575, (1S,3S)-4-(3,3-difluorocyclobutoxy)-2,2,3-trifluoro-7-(methylsulfonyl)-2,3-dihydro-1H-inden-1-ol]: the IC50 in assay [1] (setting [3]) fell in the range of 250 to 1000 nM. The EC50 in assay [2] (setting [4]) was greater than 1000 nM.

On to `N#Cc1cc(F)cc(Oc2ccc(S(N)(=O)=O)c3c2C[C@@H](F)[C@H]3O)c1` [Compound 334], for which the IC50 in assay [1] (setting [3]) fell in the range of 50 to 249 nM. The EC50 in assay [2] (setting [4]) fell in the range of 50 to 249 nM.

Consider `CS(=O)(=O)c1ccc(Oc2cncc(Br)c2)c2c1[C@H](O)C(F)(F)C2` [Compound 324], for which the IC50 in assay [1] (setting [3]) lay in the range of 50 to 249 nM. The EC50 in assay [2] (setting [4]) lay in the range of 250 to 1000 nM.

For `CS(=O)(=O)c1ccc(Oc2cc(F)cc(Cl)c2)c2c1[C@H](O)C(F)(F)C2` [Compound 160], the IC50 in assay [1] (setting [3]) is less than 50 nM. Also, in assay [2] (setting [4]), the EC50 was less than 50 nM.

Take `O=S1(=O)c2ccc(OCC3CC3)c(C(F)F)c2[C@@H](O)C1(F)F` [Compound 439]: the IC50 in assay [1] (setting [3]) is greater than 1000 nM. Also, the EC50 in assay [2] (setting [4]) is greater than 1000 nM.

On to `N#Cc1cc(F)cc(Oc2ccc(S(=O)(=O)C(F)(F)F)c(C#N)c2Br)c1` [Compound 100], for which the IC50 in assay [1] (setting [3]) was in the range of 50 to 249 nM. Moreover, the EC50 in assay [2] (setting [4]) is greater than 1000 nM.

On to `O[C@H]1c2c(C(F)(F)F)ccc(OC(F)F)c2CC1(F)F` [Compound 670], for which, in assay [1] (setting [3]), the IC50 is greater than 1000 nM. Besides, the EC50 in assay [2] (setting [4]) is greater than 1000 nM.

Turning to `CCS(=O)(=O)c1ccc(Oc2cc(F)cc(Cl)c2)c2c1C(O)CC2` (stereo not shown) [Compound 91], the IC50 in assay [1] (setting [3]) fell in the range of 250 to 1000 nM. Moreover, the EC50 in assay [2] (setting [4]) is greater than 1000 nM.

Regarding `COc1cc(F)cc(Oc2ccc(S(=O)(=O)C(F)F)c3c2CC[C@H]3O)c1` [Compound 6], in assay [1] (setting [3]), the IC50 is less than 50 nM. Besides, in assay [2] (setting [4]), the EC50 is 50 to 249 nM.

For `C[C@]1(C#N)C[C@@H](Oc2ccc(S(=O)(=O)C(F)(F)F)c3c2C[C@@H](F)[C@H]3O)C1` [Compound 794], in assay [1] (setting [3]), the IC50 is less than 50 nM. Also, in assay [2] (setting [4]), the EC50 was less than 50 nM.

For the compound `O=S(=O)(c1ccc(Oc2c(F)ccc3[nH]ncc23)c2c1[C@H](O)C(F)(F)C2)C(F)(F)F` [Compound 264], the IC50 in assay [1] (setting [3]) was in the range of 250 to 1000 nM. Further, in assay [2] (setting [4]), the EC50 was greater than 1000 nM.

Take `C[C@]1(C#N)C[C@@H](Oc2ccc(S(=O)(=O)C(F)(F)F)c3c2CC(F)(F)[C@H]3O)C1` [Compound 789]: in assay [1] (setting [3]), the IC50 is less than 50 nM. Moreover, in assay [2] (setting [4]), the EC50 was less than 50 nM.

Turning to `CCc1ccc(S(=O)(=O)C(F)(F)F)c2c1CC(F)(F)C2O` (stereo not shown) [Compound 516], the IC50 in assay [1] (setting [3]) is greater than 1000 nM. Further, in assay [2] (setting [4]), the EC50 was greater than 1000 nM.

`CS(=O)(=O)c1ccc(O[C@H]2C[C@@H](O)C2)c2c1[C@H](O)C(F)(F)[C@@H]2F` [Compound 735]: the IC50 in assay [1] (setting [3]) was in the range of 250 to 1000 nM. Also, in assay [2] (setting [4]), the EC50 was greater than 1000 nM.

With `N#Cc1cccc(Oc2ccc(S(=O)(=O)C(F)F)c(C#N)c2Cl)c1` [Compound 40], the IC50 in assay [1] (setting [3]) was in the range of 250 to 1000 nM. In addition, in assay [2] (setting [4]), the EC50 was greater than 1000 nM.

Turning to `O=S(=O)(c1ccc(Oc2ccc(F)c(Cl)c2)c2c1[C@H](O)C(F)(F)C2)C(F)(F)F` [Compound 221], the IC50 in assay [1] (setting [3]) is less than 50 nM. For the same compound, the EC50 in assay [2] (setting [4]) is less than 50 nM.

With `O=S(=O)(CF)c1ccc(Oc2cccc3sccc23)c2c1C(O)C(F)(F)C2` (stereo not shown) [Compound 242], the IC50 in assay [1] (setting [3]) fell in the range of 50 to 249 nM. Further, the concentration for a half-maximal effect (EC50) in assay [2] (setting [4]) lay in the range of 250 to 1000 nM.

In the case of `C#CCOc1ccc(S(=O)(=O)C(F)(F)F)c2c1CC(F)(F)[C@H]2O` [Compound 711], the IC50 in assay [1] (setting [3]) was 250 to 1000 nM. For the same compound, the EC50 in assay [2] (setting [4]) was 250 to 1000 nM.

Consider `CC1(C)CC[C@@H](O)[C@@H](c2ccc(S(=O)(=O)C(F)(F)F)c3c2CC(F)(F)[C@H]3O)C1` [Compound 545], for which the IC50 in assay [1] (setting [3]) lay within 50 to 249 nM. For the same compound, the EC50 in assay [2] (setting [4]) is greater than 1000 nM.
